In PubChem BioAssay (NCI):
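1) Cells in 96-well plates. 2) Compound, 48 h, 5 concentrations. 3) Linear interpolation between surrounding doses. 4) Unreached endpoint = highest concentration. TGI denotes the concentration required for complete inhibition of growth.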 Where a SMILES comes first, the peptide text is derived from it. The star is where a group is joined. Cbz = O=C(OCc1ccccc1)*; OBn = c1ccc(CO*)cc1

Tests used:
Assay in all cases: NCI tumour cell line growth inhibition, 48 h
[1] = system: HCT-15 colon
[2] = system: IGROV1 ovarian
[3] = system: K-562 leukemia
[4] = system: SF-539 CNS
[5] = system: SK-MEL-2 melanoma
[6] = system: U251 CNS
[7] = system: UO-31 renal
[8] = system: EKVX NSCLC
[9] = system: MCF7 breast
[10] = system: NCI/ADR-RES ovarian

SMILES | TGI [1] [µM] | TGI [2] [µM] | TGI [3] [µM] | TGI [4] [µM] | TGI [5] [µM] | TGI [6] [µM] | TGI [7] [µM] | TGI [8] [µM] | TGI [9] [µM] | TGI [10] [µM]
CC(C)=CCCC1(C)C=Cc2c(c(C)cc3c2[nH]c2cc(O)ccc23)O1 (stereo not given) | > 25 | > 25 | > 25 | > 25 | > 25 | > 25 | > 25 | – | – | –
O=S(=O)([O-])[O-].[Fe+2].c1ccc(/C(=N\Nc2ccccn2)c2ccccn2)cc1 | 11.3 | 5.46 | 8.44 | 6.42 | 5.74 | 4.66 | 13.1 | 4.72 | – | –
COC(=O)CNC(=O)C(C)NC(=O)C(CC(=O)OCc1ccccc1)NC(=O)OCc1ccccc1 (stereo not drawn) (Cbz-Asp(OBn)-Ala-Gly-OMe; configuration not given here) | > 100 | > 100 | > 100 | > 100 | > 100 | > 100 | 62.8 | – | > 100 | > 100
CN(C)c1ccc(/C=C/C=C\C2=CC(=C\C=C/C=C3C=CC(=[N+](C)C)C=C3)/Sc3ccccc32)cc1 | > 100 | – | > 100 | > 100 | > 100 | – | > 100 | > 100 | – | –
C=CCONC(=O)c1ccc(Cl)cc1 | > 100 | > 100 | > 100 | > 100 | > 100 | > 100 | > 100 | > 100 | – | –
CC1=C(C(=O)Nc2cccc3c2C(=O)NC3=O)CC(C(=O)Nc2cccc3c2C(=O)NC3=O)=C(C)N1 | > 100 | > 100 | > 100 | > 100 | > 100 | > 100 | > 100 | > 100 | > 100 | –
NC(=O)OCC(COc1ccc(Cl)cc1)OC(=O)c1ccccc1Cl (stereo not given) | 30 | 59.9 | 39.4 | 36.1 | 34.1 | 27.6 | 51.5 | 70 | – | –
C/C(CN1C(=O)c2ccccc2C1=O)=N\NS(=O)(=O)c1ccc(Br)cc1 | > 100 | > 100 | > 100 | > 100 | > 100 | > 100 | > 100 | > 100 | – | –
CC#COP(=O)(OCC)OCC | > 100 | > 100 | > 100 | > 100 | > 100 | > 100 | > 100 | > 100 | – | –
O=C(O)c1c[nH]c2c(Sc3ccccc3)nccc2c1=O | > 100 | > 100 | – | > 100 | > 100 | > 100 | > 100 | > 100 | > 100 | > 100
Cc1ccc(NCC2CC/C(=C\c3ccc(Cl)cc3)C2=O)cc1 (stereo not given) | 9.41 | 38 | > 19.8 | > 60.7 | – | 34 | 60 | > 100 | 26.7 | > 80.1
C=C(c1ccccc1)C1ON(C)CCc2cc(OC)c(OC)cc21 (stereo not given) | > 100 | > 100 | > 100 | > 100 | – | > 100 | > 100 | > 100 | 48.3 | > 100
NCCCCNCCCN1CC1 | > 100 | > 21.5 | > 26.4 | 2.59 | – | 28.9 | 12.8 | 18.3 | > 100 | –
NC(=S)NNC(=O)/C(=C/c1ccc(/C=C(\NC(=O)c2ccccc2)C(=O)NNC(N)=S)cc1)NC(=O)c1ccccc1 | > 100 | > 100 | > 31.6 | > 100 | > 100 | > 100 | > 100 | > 100 | – | –
COc1cc(S(=O)(=O)Nc2ccc(-c3csc(N4C(=O)CSC4c4cccs4)n3)cc2)ccc1Cl (stereo not given) | > 100 | > 100 | 95.6 | 61.6 | 42.6 | – | > 100 | > 100 | 31.7 | > 100
Cc1c2cnccc2c(C)c2c1[nH]c1ccc(O)cc12 | > 10 | > 10 | > 10 | 2.41 | > 10 | > 10 | – | > 10 | 5.34 | 8.11
CCOC(=O)/C(C)=C\[C@@]1(C)O[C@@H](C)[C@@](C)(OC(C)=O)[C@@H]1OC(C)=O | 60.2 | > 100 | > 100 | > 100 | > 100 | > 100 | – | > 100 | > 100 | > 100
CC(=O)OCC(=O)[C@@]1(O)CC[C@H]2[C@@H]3CCC4=CC(=O)[C@H](C)C[C@]4(C)[C@H]3[C@@H](O)C[C@@]21C | > 100 | > 100 | > 100 | > 100 | > 100 | > 100 | – | > 100 | – | –
O=C1CC(=O)NC(=NN2C(=O)CSC2c2ccc(Cl)c(Cl)c2)N1 (stereo not given) | > 100 | > 100 | > 100 | > 100 | > 100 | > 100 | > 100 | – | > 100 | > 100
CC1=C/C(=N\OCC(=O)O)CC(c2ccc(C(C)C)cc2)C1 (stereo not given) | 71.9 | > 100 | > 100 | > 100 | > 100 | > 100 | – | > 100 | > 100 | 75.5
c1ccc(Nc2nnc(CSc3nc(-c4ccccc4)c(-c4ccccc4)[nH]3)s2)cc1 | 49.9 | 42.2 | – | 43.6 | 38.4 | 28.1 | 34.7 | 51.5 | – | –
CC1C2CC(CC(=O)N2)C1(C)C (stereo not given) | – | > 100 | > 100 | > 100 | – | > 100 | > 100 | > 100 | > 100 | –
COc1cc(Br)c(OC)c2c(OC)cc(C)cc12 | > 100 | > 100 | > 100 | > 100 | > 100 | > 100 | > 100 | – | > 100 | > 100
COc1cc2c(/C=C3/C(=O)Nc4ccc(Cl)cc43)c(Cl)n(Cc3ccccc3)c2cc1C | 17.8 | 13.4 | > 100 | 7.69 | 34.9 | – | 6.78 | – | > 100 | > 100
CCCCCCn1c(SCC)c2ccccc2c1-c1nc(F)nc(F)n1 | > 100 | > 100 | > 100 | > 100 | > 100 | > 100 | > 100 | > 100 | – | –
